Literature values, collected in US20040131544A1, “In vivo imaging” (priority 1999, published 2004).

Conditions: background statement; Doze, et al., Nuclear Medicine and Biology 27:315-319 (2000)

**Q.** Which “adverse properties (mutagenicity / toxicity)” value does the source give for CC(C)NCC(O)COc1cccc2[nH]c3ccccc3c12 (stereo not shown) [carazolol] here?
**A.** not toxic
